# According to patent publication US6441029B1, “Method of suppressing tumor growth with combinations of isoprenoids and statins” (Wisconsin Alumni Research Foundation, priority 1997, dated 2002):
# Several values for one entry are separate records, joined by “and”; a condition that tells them apart may be missing. Equal entries are not always repeated.
# Experiments:
# [1] = up to 80 mg/d, five-year follow-up of 745 patients (14 observed, 21 predicted); cited from earlier work
# [2] = cited from earlier work
# [3] = system: murine melanoma B16/F10 cells; assay: In vitro growth assays of lovastatin, β-ionone and γ-tocotrienol alone and combined (Table 5); format: cell-based
# [4] = system: implanted murine melanoma B16F10 tumors; conditions: 50 mg/kg administered ip on alternate days; cited from earlier work
structure (smiles),measurement,setting,value
"CC[C@H](C)C(=O)O[C@H]1C[C@@H](C)C=C2C=C[C@H](C)[C@H](CC[C@@H]3C[C@@H](O)CC(=O)O3)[C@H]21 [Lovastatin, [1S[1a(R),3α,7β,8β(2S,4S),8aβ]]-1,2,3,7,8,8a-hexahydro-3,7-dimethyl-8-[2-(tetrahydro-4-hydroxy-6-oxo-2H-pyran-2-yl)ethyl]-1-maphthalenyl-2-methylbutanoate, reference compound]",reduction in cancer incidence,[1],33%
same,dose level at which the incidence and severity of toxicity increased markedly,"[2]; Phase I, 7-day courses given monthly, doses 2 to 45 mg/kg",25 mg/kg
same,total episodes of toxicity,[2]; sixty of 88 patients,128 episodes
same,Growth,[3]; 1.5 μmol/L,71 % of Control
same,decrease in cell growth,[3]; 2 μM,50%
same,Growth,[3]; 2 μmol/L,50 % of Control and 60 % of Control
same,Growth,"[3]; 2 μmol/L, listed as lovastatin",50 % of Control
same,Growth,[3]; 3 μmol/L,53 % of Control
same,growth rate relative to controls,"[3]; 1.9±0.3 μmol/l, protocol of He, et al.",61.4±4.6 % the rate of controls
same,growth of implanted murine melanoma B16F10 tumors,[4],suppressed
